Some results are limits rather than exact numbers.

For the assay, the target named is T1, PKCe (Homo sapiens, UniProt Q02156).
T1 sequence (Q02156 1-737): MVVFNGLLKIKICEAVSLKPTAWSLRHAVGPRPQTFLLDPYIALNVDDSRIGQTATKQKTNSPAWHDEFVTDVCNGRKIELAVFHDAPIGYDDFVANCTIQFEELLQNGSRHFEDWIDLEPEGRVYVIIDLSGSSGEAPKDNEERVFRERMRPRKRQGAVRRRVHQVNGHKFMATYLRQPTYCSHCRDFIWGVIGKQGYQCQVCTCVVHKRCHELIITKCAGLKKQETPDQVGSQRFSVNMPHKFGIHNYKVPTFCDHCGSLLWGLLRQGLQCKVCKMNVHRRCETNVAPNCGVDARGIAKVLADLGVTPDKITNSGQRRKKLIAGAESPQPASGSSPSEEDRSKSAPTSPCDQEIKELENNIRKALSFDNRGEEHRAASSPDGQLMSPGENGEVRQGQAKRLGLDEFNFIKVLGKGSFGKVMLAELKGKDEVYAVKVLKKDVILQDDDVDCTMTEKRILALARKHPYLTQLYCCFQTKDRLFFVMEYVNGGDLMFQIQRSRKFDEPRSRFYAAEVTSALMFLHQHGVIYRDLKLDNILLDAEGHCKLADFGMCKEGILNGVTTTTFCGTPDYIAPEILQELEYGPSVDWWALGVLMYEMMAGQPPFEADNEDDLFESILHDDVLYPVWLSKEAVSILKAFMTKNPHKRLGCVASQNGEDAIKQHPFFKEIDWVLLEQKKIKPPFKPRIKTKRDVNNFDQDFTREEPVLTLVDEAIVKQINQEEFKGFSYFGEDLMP
Kind of assay: Kinase specificity assay (33P phosphoryl transfer, LCCA or AlphaScreen). The format is biochemical. As to conditions: ATP close to KM; read-out: PKCe inhibition, IC50. The method, then:
Kinase activity and compound inhibition are investigated using one or more of the three assay formats described below. The ATP concentrations for each assay are selected to be close to the Michaelis-Menten constant (KM) for each individual kinase. Dose-response experiments are performed at 10 different inhibitor concentrations in a 384-well plate format. The data are fitted to the following four-parameter equation: Y=Min+(Max−Min)/(1+(X/IC50)^H) where Y is the observed signal, X is the inhibitor concentration, Min is the background signal in the absence of enzyme (0% enzyme activity), Max is the signal in the absence of inhibitor (100% enzyme activity), IC50 is the inhibitor concentration at 50% enzyme inhibition and H represents the empirical Hill's slope to measure the cooperativity. Typically H is close to unity. ^33P Phosphoryl Transfer Assay:
Greiner 384-well white, clear bottom, high binding plates are coated with 2 μg/well of protein or peptide substrate in a 50 μL volume overnight at ambient temperature. The coating buffer typically contains 40 μg/mL substrate, 22.5 mM Na2CO3, 27.5 mM NaHCO3, 150 mM NaCl and 3 mM NaN3. The coating solution is aspirated and the plates are washed once with 50 μL of assay buffer and padded dry. Subsequently compounds and enzymes are mixed with γ^33P-ATP (3.3 μCi/nmol) in a total volume of 20 uL in suitable assay buffers. The mixture is incubated at ambient temperature for 1.5-2.5 hrs and terminated by aspiration using a Molecular Devices EMBLA 96-head plate washer. The plates are subsequently washed 6-12 times with PBST or TBS buffer. Scintillation fluid (50 μl/well) is then added, the plates are sealed and activity assessed by liquid scintillation spectrometry using a Perkin Elmer MicroBeta TriLux.
In the LCCA assays, kinase activity is measured as the percent ATP consumed following the kinase reaction using luciferase-luciferin-coupled chemiluminescence. Greiner 384-well white, clear bottom, medium binding plates are used for LCCA. Briefly, the kinase reaction is initiated by mixing compounds, ATP and kinase in a 20 uL volume. The mixture is incubated at ambient temperature for 2-4 hrs. At the end of the kinase reaction, a 20 uL luciferase-luciferin mix is added and the chemiluminescent signal is read using a Wallac Victor^2 reader. The luciferase-luciferin mix consists of 50 mM HEPES, pH 7.8, 8.5 ug/mL oxalic acid (pH 7.8), 5 (or 50) mM DTT, 0.4% Triton X-100, 0.25 mg/mL coenzyme A, 63 uM AMP, 28 ug/mL luciferin and 40,000 units of light/mL luciferase. For the LCCA assays, total ATP consumption has been standardized to 25-45% and the IC50 values correlates well with those determined by radiometric assays.
AlphaScreen technology is a proximity assay which utilizes the increase in fluorescent signal when donor and acceptor beads are close in proximity. Biotinylated poly(Glu,Tyr) 4:1 is used as the kinase substrate, in conjunction with streptavidin-coated donor beads and anti-phosphortyrosine antibody PY100-coated acceptor beads. Upon phosphorylation, the peptide substrate can bind to both donor and acceptor beads giving rise to an increase in fluorescence. Compounds, ATP, biotinylated poly(Glu, Tyr) and kinases are mixed in a volume of 20 uL for 1 hr at ambient temperature using Greiner 384-well white clear bottom medium binding plates. Following incubation a 10 uL solution containing […] AlphaScreen beads, 75 mM Hepes, pH 7.4, 300 mM NaCl, 120 mM EDTA, 0.3% BSA and 0.03% Tween-20 is added to each well. After 2-16 hr incubation of the beads, plates are read in a Perkin Elmer AlphaQuest reader. The IC50 values correlates well with those of radiometric assays.

For `NC(=O)c1nc(-c2cccc3ccccc23)cnc1N` [Example 2, 3-Amino-6-naphthalen-1-ylpyrazine-2-carboxamide], the IC50 was at least 10 µM.

These data come from patent US7704995B2 (Exelixis, Inc., priority 2003, dated 2010).
